According to ChEMBL document CHEMBL1126101, “Synthesis and structure-activity relationships of acetylcholinesterase inhibitors: 1-benzyl-4-(2-phthalimidoethyl)piperidine and related derivatives” (J Med Chem, 1992):
pIC50: −log10 of the molar value.

target: T1, Butyrylcholinesterase (Rattus norvegicus, UniProt Q9JKC1); test: In vitro inhibitory concentration against butyrylcholinesterase (BuChE) obtained from rat plasma; assay type: cell-free
T1 sequence (Q9JKC1 whole entry): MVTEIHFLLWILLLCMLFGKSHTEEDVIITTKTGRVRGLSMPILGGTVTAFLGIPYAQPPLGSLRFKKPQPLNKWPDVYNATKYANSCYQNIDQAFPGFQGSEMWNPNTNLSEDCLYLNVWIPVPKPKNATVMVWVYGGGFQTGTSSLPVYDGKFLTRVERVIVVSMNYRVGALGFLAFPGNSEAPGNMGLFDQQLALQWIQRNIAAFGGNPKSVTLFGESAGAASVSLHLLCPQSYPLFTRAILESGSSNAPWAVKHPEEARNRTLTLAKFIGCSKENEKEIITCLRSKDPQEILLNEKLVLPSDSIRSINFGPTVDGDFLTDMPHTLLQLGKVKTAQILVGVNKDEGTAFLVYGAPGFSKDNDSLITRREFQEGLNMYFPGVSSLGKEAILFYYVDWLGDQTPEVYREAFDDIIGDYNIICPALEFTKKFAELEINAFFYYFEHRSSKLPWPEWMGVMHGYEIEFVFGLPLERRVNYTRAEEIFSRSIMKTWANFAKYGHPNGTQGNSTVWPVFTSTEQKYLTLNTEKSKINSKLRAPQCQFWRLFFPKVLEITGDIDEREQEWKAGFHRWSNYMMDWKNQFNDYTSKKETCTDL

SMILES | pIC50
CNC(=O)Oc1ccc2c(c1)[C@]1(C)CCN(C)[C@@H]1N2C [PHYSOSTIGMINE] | 8.09

target: T2, Acetylcholinesterase (Mus musculus, UniProt P21836); test: biochemical
T2 sequence (P21836 whole entry): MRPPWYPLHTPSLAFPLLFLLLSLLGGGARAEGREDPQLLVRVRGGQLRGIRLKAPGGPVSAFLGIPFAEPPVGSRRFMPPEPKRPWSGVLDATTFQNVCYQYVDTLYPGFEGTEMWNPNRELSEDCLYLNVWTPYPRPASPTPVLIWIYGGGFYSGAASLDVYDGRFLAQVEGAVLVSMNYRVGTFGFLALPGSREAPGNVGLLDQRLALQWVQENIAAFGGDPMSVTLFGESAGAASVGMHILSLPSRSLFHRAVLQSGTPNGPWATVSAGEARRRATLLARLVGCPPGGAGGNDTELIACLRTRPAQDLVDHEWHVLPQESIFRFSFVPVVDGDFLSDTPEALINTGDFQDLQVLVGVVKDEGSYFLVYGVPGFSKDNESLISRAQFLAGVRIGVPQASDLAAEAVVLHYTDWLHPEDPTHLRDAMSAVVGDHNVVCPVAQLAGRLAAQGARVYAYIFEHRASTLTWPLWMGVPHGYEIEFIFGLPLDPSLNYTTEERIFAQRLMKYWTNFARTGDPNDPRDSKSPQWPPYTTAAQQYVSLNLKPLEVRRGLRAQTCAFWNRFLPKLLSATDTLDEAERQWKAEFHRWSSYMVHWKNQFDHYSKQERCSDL
Description: In vitro inhibitory concentration against acetylcholinesterase (AChE) obtained from mouse brain homogenate.

SMILES | pIC50
O=C1c2ccc([N+](=O)[O-])cc2C(=O)N1CCC1CCN(Cc2ccccc2)CC1 | 7.90
O=C1c2ccccc2C(=O)N1CCC1CCN(Cc2ccccc2)CC1 | 7.52
O=C1c2ccc([N+](=O)[O-])cc2C(=O)N1CCC1CCN(Cc2ccc(Cl)cc2)CC1 | 6.62
CC(=O)N(C)CCC1CCN(Cc2ccccc2)CC1 | 6.18
O=C(c1ccc([N+](=O)[O-])cc1)N(CCC1CCN(Cc2ccccc2)CC1)c1ccccc1 | 8.27
COc1cccc(N(CCC2CCN(Cc3ccccc3)CC2)C(C)=O)c1 | 7.34
O=C(Nc1ccc2c(c1)C(=O)N(CCC1CCN(Cc3ccccc3)CC1)C2=O)c1ccccc1 | 8.92
Nc1cccc2c1C(=O)N(CCC1CCN(Cc3ccccc3)CC1)C2=O | 7.96
O=c1c2ccccc2ncn1CCC1CCN(Cc2ccccc2)CC1 | 5.92
O=C(C1CCCCC1)N(CCC1CCN(Cc2ccccc2)CC1)c1ccccc1 | 5.03
CN1CCC(CCN2C(=O)c3ccc([N+](=O)[O-])cc3C2=O)CC1 | 5.17
O=C1Cc2ccccc2C(=O)N1CCC1CCN(Cc2ccccc2)CC1 | 7.64
CC(=O)N(CCC1CCN(Cc2ccccc2)CC1)c1cccc(F)c1 | 7.19
O=c1c2ccccc2ccn1CCC1CCN(Cc2ccccc2)CC1 | 5.96
CC(=O)N(CCC1CCN(Cc2ccccc2)CC1)c1ccncc1 | 6.97
O=C1CCCCN1CCC1CCN(Cc2ccccc2)CC1 | 6.57
O=C(Nc1cccc2c1C(=O)N(CCC1CCN(Cc3ccccc3)CC1)C2=O)c1ccccc1 | 6.47
COc1ccc(N(CCC2CCN(Cc3ccccc3)CC2)C(C)=O)cc1 | 6.15
CCC(=O)N(CCC1CCN(Cc2ccccc2)CC1)c1ccccc1 | 6.08
COc1ccc(C(=O)N(CCC2CCN(Cc3ccccc3)CC2)c2ccccc2)cc1 | 6.23
c1ccc(CN2CCC(CCN3CCc4ccccc4C3)CC2)cc1 | 5.80
O=C1c2ccc([N+](=O)[O-])cc2C(=O)N1CC1CCN(Cc2ccccc2)CC1 | 5.52
O=C1c2ccccc2CN1CCC1CCN(Cc2ccccc2)CC1 | 7.01
COc1ccc(CN2CCC(CCN3C(=O)c4ccc([N+](=O)[O-])cc4C3=O)CC2)cc1 | 6.36
CC(=O)N(CCC1CCN(Cc2ccccc2)CC1)c1ccc(F)cc1 | 6.69
O=C1c2ccc([N+](=O)[O-])cc2C(=O)N1C1CCN(Cc2ccccc2)CC1 | 4.57
CN(CCC1CCN(Cc2ccccc2)CC1)C(=O)c1ccc(S(=O)(=O)Cc2ccccc2)cc1 | 9.25
CNC(=O)Oc1ccc2c(c1)[C@]1(C)CCN(C)[C@@H]1N2C [PHYSOSTIGMINE] | 9.16

target: T1, Butyrylcholinesterase; test: not given

SMILES | pIC50
O=C(Nc1ccc2c(c1)C(=O)N(CCC1CCN(Cc3ccccc3)CC1)C2=O)c1ccccc1 | 4.37
